In article PMC6423129, “Activity and structural analysis of GRL-117C: a novel small molecule CCR5 inhibitor active against R5-tropic HIV-1s” (Scientific Reports, 2019):
Read-outs that look alike come from different tables or passages of the source.

Tests used:
CC1/85 cl.6 = test: Anti-HIV-1 assay, drug-naive clinical strain CC1/85 cl.6; format: cell-based
Experimental: (§1) MAGI-CCR5 cells[18] were maintained in DMEM supplemented with 10% fetal calf serum (FCS: Gemini Bio-Products, West Sacramento, CA), 200 μg/ml G418, 100 μg/ml hygromycin B, and 100 μg/ml zeomycin. The Chinese hamster ovary (CHO) cells expressing CCR5[19] were maintained in Ham’s F-12 medium (GIBCO-BRL, Rockville, MD) supplemented with 10% FCS, 50 U/ml penicillin, and 50 μg/ml streptomycin in the presence of 5 μg/ml blasticidin S hydrochloride. TZM-bl cells were obtained from the NIH AIDS Reagent Program, and were cultured in DMEM with 10% FCS. Peripheral blood mononuclear cells (PBMCs) were isolated from buffy coats of HIV-1 seronegative individuals, and were activated with 10 μg/ml phytohemagglutinin (PHA) prior to use[16]. A laboratory wild-type R5-HIV-1 strain (HIV-1Ba-L)[37] was employed for drug susceptibility assays. AD101 (experimental CCR5 inhibitor) and VVC-resistant HIV clones[7],[8] were provided by Dr. John P. Moore of Cornell University for this study. The clones were propagated with activated PBMCs, and were used for the assays. A clinical HIV-1 strain, HIV-1KP-5pc, and an MVC-resistant isolate, HIV-1KP-5mvcR, were prepared and used for antiviral assays, as previously described[10],[38]. The following reagents (plasmids) for T/F HIV-1 viruses[22],[24] were obtained through the NIH AIDS Reagent Program, Division of AIDS, NIAID, NIH: pCH040.c/2625 (cat# 11740), pCH106.c/2633 (cat# 11743), pTHRO.c/2626 (cat# 11745), and pCH058.c/2960 (cat# 11856), from Dr. John Kappes and Dr. Christina Ochsenbauer.
(§2) Antiviral assays using PHA-PBMCs (p24 assay) were conducted as previously reported[16],[38]. In brief, PHA-PBMCs (1 × 10^6/ml) were exposed to 50 TCID50 of HIV-1Ba-L or drug-resistant HIV-1 infectious clones in the presence or absence of various concentrations of drugs; 10-fold serial dilutions were performed in 96-well microculture plates. The amount of p24 antigens produced by the cells was determined on day 7 in the culture via a commercially available ELISA kit (PerkinElmer). The p24 production level in drug-free control cell cultures was used as the reference. […] Antiviral assays using MAGI-CCR5 cells (MAGI assay) were conducted as previously reported[16],[39]. Single-round virus infection assays using TZM-bl cells infected with R5-HIV-1s (HIV-1YU2, HIV-1KP-5pc, and HIV-1KP-5mvcR)[10] were also conducted as previously described.

R5-HIV-1Ba-L = test: MAGI assay using MAGI/CCR5 cells and R5-HIV-1Ba-L; format: cell-based; details: Ba-L (MAGI)
Experimental: as §1, §2

[1] = test system: CC101.19 cl.7 (AD101 resistant); test: microbe, parasite or virus in culture; format: cell-based, HIV-1
Experimental: as §1, §2

[2] = test system: D1/85.16 cl.23 (VVC resistant); test: microbe, parasite or virus in culture; format: cell-based, HIV-1
Experimental: as §1, §2

R5-HIV-1BaL = test: p24 assay using PBMCs and R5-HIV-1BaL; format: cell-based; details: Ba-L (PBMCs), day 7
Experimental: as §1, §2

CC1/85 cl.7 = test: Anti-HIV-1 assay, drug-naive clinical strain CC1/85 cl.7; format: cell-based
Experimental: as §1, §2

pCH058.c/2960 = test: MAGI assay, T/F HIV-1 clone pCH058.c/2960; format: cell-based; details: Human immunodeficiency virus 1, MAGI
Text: (§3) We also examined the activity of GRL-compounds against Transmitter/founder (T/F) HIV-1 viruses. T/F viruses are involved in the initial infection. It is considered that T/F viruses virtually always use CCR5 rather than CXCR4 and infect T cells but not macrophages because […] of CD4 is needed to mediate virus entry for the initial transmission[20]–[24]. […] We obtained four HIV-1 T/F infectious clones. We determined the antiviral activity of GRL-117C, GRL-10007C and GRL-10018C on these HIV-1 clones using MAGI assay.
as §1, with “A clinical HIV-1 strain, HIV-1KP-5pc, and an MVC-resistant isolate, HIV-1KP-5mvcR, were prepared and used for antiviral assays, as previously described[10],[38].” left out
as §2

pCH0.6.c/2633 = test: MAGI assay, T/F HIV-1 clone pCH0.6.c/2633; format: cell-based; details: Human immunodeficiency virus 1, MAGI
Text: as §3
as §1, with “A clinical HIV-1 strain, HIV-1KP-5pc, and an MVC-resistant isolate, HIV-1KP-5mvcR, were prepared and used for antiviral assays, as previously described[10],[38].” left out
as §2

pTHRO.c/2626 = test: MAGI assay, T/F HIV-1 clone pTHRO.c/2626; format: cell-based; details: Human immunodeficiency virus 1, MAGI
Text: as §3
as §1, with “A clinical HIV-1 strain, HIV-1KP-5pc, and an MVC-resistant isolate, HIV-1KP-5mvcR, were prepared and used for antiviral assays, as previously described[10],[38].” left out
as §2

pCH040.c/2625 = test: MAGI assay, T/F HIV-1 clone pCH040.c/2625; format: cell-based; details: Human immunodeficiency virus 1, MAGI
Text: as §3
as §1, with “A clinical HIV-1 strain, HIV-1KP-5pc, and an MVC-resistant isolate, HIV-1KP-5mvcR, were prepared and used for antiviral assays, as previously described[10],[38].” left out
as §2

CCR5 [3] = target: T1, CCR5 (Homo sapiens, UniProt P51681); test: Inhibition of 125I-RANTES binding to CCR5 (CCR5+ CHO cells)
T1 construct: expressed in transfected cells; host or cells: Chinese hamster ovary (CHO) cells expressing CCR5
Experimental: (§4) In order to determine whether GRL derivatives block the binding of CC-chemokines to CCR5, we conducted a CC-chemokine binding inhibition assay using ^125I-labeled CC-chemokines (^125I-RANTES, ^125I-MIP-1α, and ^125I-MIP-1β) and CCR5 expressing cells.
(§5) CCR5^+ CHO cells were incubated with (A) ^125I-MIP-1α, (B) ^125I-MIP-1β, and (C) ^125I-RANTES (200 ng/ml) in the presence or absence of varying concentrations of CCR5 inhibitors. Data are shown as means ± s.d. of three independent experiments.
(§6) The inhibition of the binding of ^125I-labeled CC-chemokines ([^125I] RANTES, [^125I] MIP-1α, or [^125I] MIP-1β) to CCR5 by various CCR5 inhibitors was measured as previously described. Calcium flux inhibition assays were also performed with CCR5 inhibitors, and were carried out with the Fluo-4 Direct^TM calcium reagent (Invitrogen); assays were conducted as previously described with minor modifications. In brief, CHO-CCR5 cells (5 × 10^5 cells) were exposed to Fluo-4 Direct^TM calcium reagent for 60 min at 37 °C in RPMI containing 5% FCS. Cells were then incubated with the test compound for 30 min at varying concentrations. Subsequently, cells were exposed to either MIP-1α, MIP-1β, or RANTES at 200 ng/ml. Relative increases in cytosolic Ca^2+ levels after chemokine exposure were determined with flow cytometry (FACSCalibur, BD Biosciences), and IC50 values of cytosolic Ca^2+ mobilization (Ca^2+ flux) were compared with the Ca^2+ flux level in drug-free control samples.

HIV-1KP-5mvcR = test: TZM-bl single-round infection assay, MVC-resistant HIV-1KP-5mvcR; format: cell-based; details: in words; data not shown
Experimental: as §1, §2

CCR5 [4] = target: T1, CCR5; test: Inhibition of 125I-MIP-1α binding to CCR5 (CCR5+ CHO cells)
Experimental: as §4, §5, §6

CCR5 [5] = target: T1, CCR5; test: Inhibition of 125I-MIP-1β binding to CCR5 (CCR5+ CHO cells)
Experimental: as §4, §5, §6

[6] = Human immunodeficiency virus 1, BAL
[7] = Human immunodeficiency virus 1, CC101.19 cl.7 (AD101 resistant)
[8] = Human immunodeficiency virus 1, D1/85.16 cl.23 (VVC resistant)
[9] = Human immunodeficiency virus 1, BAL, PBMC, 168 h

T1 sequence (P51681 whole entry): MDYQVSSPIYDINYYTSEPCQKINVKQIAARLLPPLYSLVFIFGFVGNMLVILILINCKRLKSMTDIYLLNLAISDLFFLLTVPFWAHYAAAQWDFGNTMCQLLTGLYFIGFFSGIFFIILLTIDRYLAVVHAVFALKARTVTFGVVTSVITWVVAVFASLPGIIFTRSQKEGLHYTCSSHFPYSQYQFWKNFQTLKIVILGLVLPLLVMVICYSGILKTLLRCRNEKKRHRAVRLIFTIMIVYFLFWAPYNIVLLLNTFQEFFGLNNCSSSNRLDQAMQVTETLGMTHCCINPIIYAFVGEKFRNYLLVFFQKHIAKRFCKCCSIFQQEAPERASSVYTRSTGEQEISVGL

What does the source list for `CCO/N=C(\c1ccc(Br)cc1)C1CCN(C2(C)CCN(C(=O)c3c(C)cc[n+]([O-])c3C)CC2)CC1` [SCH-C]?
IC50 (CC1/85 cl.6; Human immunodeficiency virus 1, CC1/85 cl.6, drug naive R5-HIV-1 clinical strain, read-out: IC50): 5.2 nM; IC50 (R5-HIV-1Ba-L; [6]): 4.8 nM; IC90 (R5-HIV-1Ba-L; [6]): 15.9 nM; IC90 ([1]; Human immunodeficiency virus 1): > 1000 nM; IC50 [1, 7]: > 1000 nM; IC90 ([2]; Human immunodeficiency virus 1): > 1000 nM; IC50 [2, 8]: 412 nM; IC50 (R5-HIV-1BaL; [9]): 13.9 nM; IC90 (R5-HIV-1BaL; [9]): 97.2 nM; IC50 (CC1/85 cl.7; Human immunodeficiency virus 1): 6.1 nM; IC90 (CC1/85 cl.7; Human immunodeficiency virus 1): 67.7 nM

How did the IC50 (CC1/85 cl.6; Human immunodeficiency virus 1) turn out when `Cc1cccc(C)c1C(=O)N1C2CCC1CC(N1CCN(C(C)c3ccc(C(F)(F)F)cc3)C(C)C1)C2` (centres unmarked) [GRL-10007C] was run?
Its IC50 is 12.5 nM.

And the IC50 (R5-HIV-1Ba-L; [6])?
Its IC50 is 1.4 nM.

What about the IC90 (R5-HIV-1Ba-L; [6]) of the same compound?
Its IC90 is 9.5 nM.

And the IC50 (pCH058.c/2960)?
The IC50 was 6.1 ± 3.2 nM.

And the IC90 ([1]; Human immunodeficiency virus 1)?
The IC90 was 472 nM.

And the IC50 [1, 7]?
Its IC50 is 41.1 nM.

What about the IC90 ([2]; Human immunodeficiency virus 1) of the same compound?
The IC90 was 536 nM.

And the IC50 [2, 8]?
The IC50 was 56.9 nM.

What about the IC50 (pCH0.6.c/2633) of the same compound?
The IC50 was 5.3 ± 3.4 nM.

What about the IC50 (pTHRO.c/2626) of the same compound?
Its IC50 is 3.2 ± 0.4 nM.

What about the IC50 (pCH040.c/2625) of the same compound?
The IC50 was 3.1 ± 0.3 nM.

What about the EC50 (CCR5 [3]) of the same compound?
Its EC50 is 628 nM.

And the “binding of 125I-RANTES remaining” value (CCR5 [3]; in the presence of 1 μM compound)?
Its value is “more than 40%”.

And the “activity against MVC-resistant HIV-1 (HIV-1KP-5mvcR)” value (HIV-1KP-5mvcR)?
Its value is “failed to demonstrate activity”.

What about the EC50 (CCR5 [4]) of the same compound?
Its EC50 is 1.1 nM.

What about the EC50 (CCR5 [5]) of the same compound?
The EC50 was 2.5 nM.

And the IC50 (R5-HIV-1BaL; [9])?
Its IC50 is 16.9 nM.

And the IC90 (R5-HIV-1BaL; [9])?
Its IC90 is 126 nM.

What about the IC50 (CC1/85 cl.7; Human immunodeficiency virus 1) of the same compound?
The IC50 was 15.8 nM.

And the IC90 (CC1/85 cl.7; Human immunodeficiency virus 1)?
Its IC90 is 80.3 nM.

Which IC50 (CC1/85 cl.6; CC1/85 cl.6, drug naive R5-HIV-1 clinical strain, read-out: IC50) does the source give for `Cc1ccc(-c2ccc3c(c2)C=C(C(=O)Nc2ccc(C[N+](C)(C)C4CCOCC4)cc2)CCC3)cc1.[Cl-]` [TAK-779] here?
Its IC50 is 22.7 nM.

What about the IC50 (R5-HIV-1Ba-L) of the same compound?
The IC50 was 15.7 nM.

What about the IC90 (R5-HIV-1Ba-L) of the same compound?
The IC90 was 88.1 nM.

And the “fold increases of IC50s compared to wild type (CC1/85 cl.7)” value ([1]; CC101.19 cl.7 (AD101 resistant) vs CC1/85 cl.7)?
Its value is “(×14) fold”.

And the IC50 ([1]; CC101.19 cl.7 (AD101 resistant), read-out: IC50)?
The IC50 was 400 nM.

And the IC90 ([1]; CC101.19 cl.7 (AD101 resistant), read-out: IC90)?
Its IC90 is over 1000 nM.

And the “fold increases of IC50s compared to wild type (CC1/85 cl.7)” value ([2]; D1/85.16 cl.23 (VVC resistant) vs CC1/85 cl.7)?
Its value is “(×5.9) fold”.

What about the IC50 ([2]; D1/85.16 cl.23 (VVC resistant), read-out: IC50) of the same compound?
The IC50 was 166 nM.

And the IC90 ([2]; D1/85.16 cl.23 (VVC resistant), read-out: IC90)?
The IC90 was 747 nM.

What about the IC50 (R5-HIV-1BaL) of the same compound?
The IC50 was 31.6 nM.

And the IC90 (R5-HIV-1BaL)?
The IC90 was 187 nM.

What about the IC50 (CC1/85 cl.7; CC1/85 cl.7, drug naive R5-HIV-1 clinical strain, read-out: IC50) of the same compound?
Its IC50 is 28.3 nM.

What about the IC90 (CC1/85 cl.7; CC1/85 cl.7, drug naive R5-HIV-1 clinical strain, read-out: IC90) of the same compound?
Its IC90 is 101 nM.
